Measured values as given in paper PMC10920779, “Targeting P2Y14R protects against necroptosis of intestinal epithelial cells through PKA/CREB/RIPK1 axis in ulcerative colitis” (Nature Communications, 2024).
Several values for one entry are separate records, joined by “and”; a condition that tells them apart may be missing. Identical values can stand only once. Entries after “also recorded” stand apart in the source; their conditions may differ.

What was measured:
[1] = system: MLKL, PKA, CREB phosphorylation; experiment: Immunoblotting of p-MLKL, p-PKA, p-CREB in colon tissues/IECs of DSS-treated mice; assay type: in vivo, mouse
Protocol: The data represent the mean ± SD for c, e, and h–l, the data represent the mean ± SEM for b.
Colon tissues derived from the euthanized by carbon dioxide inhalation mice were opened longitudinally and washed in pre-cooling PBS for three times. Then, the tissues were cut into 3 mm^2 pieces and incubated with 5 mM EDTA solution in PBS on a constant temperature shaker at 200 rpm for 25 min at 37°C. Then, let it stand at room temperature for 30 seconds and collected the supernatant. Next, repeated the above process once. Supernatants from the above step were combined and centrifuged at 500 g for 8 min. Abandon the supernatants and obtain IECs.
Tissues and cells were lysed using RIPA lysis buffer (Beyotime Biotechnology) containing protease and phosphatase inhibitor, homogenated, and centrifuged. The protein concentration was determined by BCA protein assay (Beyotime Biotechnology). Equal concentrations of proteins were separated in a 10% SDS-PAGE and transferred to PVDF membrane. The membrane was blocked using 5% milk in TBST, probed with primary antibody, RIPK1 (17519-1-AP, Proteintech, 1:1000), MLKL (GTX107538-100, GeneTex, 1:1000), RIPK3 (17563-1-AP, Proteintech, 1:1000), p-MLKL (EPR9514, Abcam, 1:1000), PKA (bs-0520R, Bioss, 1:1000), p-PKA (#9621, Cell signaling, 1:1000), CREB (AF6188, Affinity, 1:1000), p-CREB (AF3189, Affinity, 1:1000), P2Y14R (bs-12028R, Bioss, 1:1000), GSDMD (ab209845, Abcam, 1:1000), Caspase1 p20 (bs-10442R, Bioss, 1:1000), Bcl-2 (bs-0032R, Bioss, 1:1000), Bax (AF0120, Affinity, 1:1000), Caspase-3 p-17 (Cell Signaling Technology, #9664, 1:1000), β-actin (bs-0061R, Bioss, 1:1000), GAPDH (BS-2188R, Bioss, 1:1000) and corresponding HRP-conjugated antibodies Goat Anti-Rabbit IgG H&L Antibody (bioss, Bs-0295G, 1:8000) or Goat Anti-Mouse IgG H&L Antibody (bioss, Bs-0296G, 1:8000). Densitometry was quantified using ImageJ software.

[2] = system: DSS-induced colitis in mice; experiment: DSS-induced acute colitis in WT mice, P2Y14R antagonist treatment (body weight, DAI, colon length, H&E, tight junction staining, TEM); assay type: in vivo, mouse; design: DAI: scale not given here; conditions: for DAI / Weight (%): DSS-treated mice
Text: Male, 7-8-week-old, P2Y14R^fl/fl Vil-cre (P2Y14R^∆IEC), P2Y14R^fl/fl Lyz2-cre and WT mice with C57BL/6 J background were used to establish experimental (acute) colitis model. P2Y14R^fl/fl C57BL/6 J mice were used as control for P2Y14R^fl/fl Vil-cre (P2Y14R^∆IEC) and P2Y14R^fl/fl Lyz2-cre mice. WT C57BL/6 J mice were used for the pharmacological study of HDL-16. Colitis was induced by dextran sodium sulfate (DSS; 36-50 kDa; 3% w/v; MP Biomedicals, Solon, Ohio, USA), added to the drinking water ad libitum for 7 days. Control mice received standard drinking water. The Disease Activity Index (DAI) was evaluated daily as described previously. After 7 days of DSS treatment, mice were euthanized by carbon dioxide inhalation and the colons were measured and then processed for histological analyses, homogenized to extract protein or RNA.
The DSS group and the P2Y14R^△IEC + DSS group were rectally administered with 100 μl vehicle (saline with 0.1% DMSO). The low-dose group of mice was given 10 μM HDL-16, 100 μl per mouse, while the high-dose group was given 20 μM HDL-16, 100 μl per mouse.
For TEM, harvest fresh tissue blocks quickly within 1-3 minutes. […] Then tissues avoid light post fixed in 1% OsO4 in PBS for 2 h at room temperature. […] The samples were moved into a 65°C oven to polymerize for more than 48 h. Ultrathin sections were cut to 60-80 nm thin with an ultramicrotome UCT6 (Leica Microsystems, Vienna) and placed on 150 meshes cuprum grids (formvar carbon coated Cu grids) with formvar film. […] Micrographs were obtained with a Jeol JEM 1400 plus electron microscope (Jeol, USA) operating at 80 kV.
For histological assessment of colitis, colon specimens were fixed in 4% paraformaldehyde (PFA) and embedded in paraffin. Five-micrometer tissue sections were stained with H&E and examined for evidence of colitis as described previously. After the paraffin sections conventional dewaxing to water, put the sections into Hematoxylin solution for 3-5 min and treat the sections with Hematoxylin Differentiation solution. […] Finally, dehydrated the sections with gradient alcohol and xylene, and sealed with neutral gum. Images were captured with a microscope (BX53, Olympus).
Immunofluorescence staining was performed using paraffin-embedded tissues as mentioned before. For immunofluorescence, the paraffin slides were deparaffinized, rehydrated, blocked and treated according to a standard protocol. […] All slides were incubated with DAPI (S2110, Solarbio) for 10 min to show the location of the nucleus. Images were captured with a confocal microscope (LSM 800, Zeiss).

[3] = system: mucosal barrier function; experiment: Intestinal permeability, serum FITC-dextran in DSS-treated mice; assay type: in vivo, mouse; conditions: high-dose, 20 μM, 100 μl per mouse
Protocol: The mice treated with DSS for 7 days were fasted for 6 h, given FITC-dextran (3-5 kDa, FD4, sigma) intragastrically at a dose of 60 mg kg^−1. After 3 h, hemolysis-free sera were collected and the fluorescence intensity of serum was read by a multi-mode microplate reader (excitation, 488 nm; emission, 520 nm).

[4] = system: HT-29 cells; experiment: TSZ-induced necroptosis in HT-29 cells (CCK8 viability, PI/Hoechst, H&E staining); assay type: cell-based, human; conditions: TSZ-treated, pre-administrated with compound
Protocol: Necroptosis was induced by pretreatment with TNF‐α (20 ng·mL^−1) plus z‐VAD‐fmk (20 μM) and Smac mimetic (BV6, 2 μM) for 8 h, then stained cells with hematoxylin/eosin. For PI/Hoechst staining, cells were stained with PI and Hoechst for 20 min, then photographed with a fluorescence microscope and at least 300 cells were counted. The ratio of PI positive cells (%) = (PI positive cells) / (Hoechst positive cells) × 100%. For cell viability assay, CCK8 was added to the well and incubated for 1 − 2 h and then OD450 was measured using a multi-mode microplate reader (Cytation5, BioTek).

[5] = DSS-treated mice, group -H (high dose), Figure 7h
[6] = DSS-treated mice, group -L (low dose), Figure 7h
[7] = high-dose, 20 μM, 100 μl per mouse

Compound: Brc1ccc(NCc2nc3ccccc3o2)cc1 [HDL-16]
- Activation of cAMP/PKA/CREB pathway (p-PKA, p-CREB) ([1]; DSS-induced colitis mice): significantly increased the level of p-PKA and p-CREB; also recorded: upregulated the activation of the cAMP/PKA/CREB pathway
- P-MLKL/MLKL [1, 5]: 1.521 and 1.265 and 1.621 and 1.356 and 1.5395
- P-PKA/PKA [1, 5]: 1.707 and 1.759 and 1.709 and 1.416 and 2.236
- p-CREB/CREB [1, 5]: 1.095 and 0.9798 and 1.543 and 0.8826 and 0.8002
- P-MLKL/MLKL [1, 6]: 1.7141 and 1.386 and 1.7276 and 1.656 and 1.549
- P-PKA/PKA [1, 6]: 1.542 and 1.79 and 2.009 and 1.5655 and 1.809
- p-CREB/CREB [1, 6]: 0.8983 and 0.8748 and 1.433 and 0.9557 and 0.9121
- P-MLKL/MLKL ([1]; P2Y14R△IEC mice + DSS + HDL-16-H (high dose), individual replicates): 1.288 and 1.248 and 1.394 and 1.076 and 1.4285
- P-MLKL/MLKL ([1]; P2Y14R△IEC mice + DSS + HDL-16-L (low dose), individual replicates): 1.279 and 1.445 and 1.246 and 1.195 and 1.182
- Necroptosis of IECs (p-MLKL level and TEM imaging) ([1]; high-dose, 20 μM, during DSS feeding): prominently suppression in necroptosis
- DAI ([2]; group -H (high dose), Day 1): 0
- Weight (%) ([2]; group -H (high dose), Day 1): 95.5056% and 101.124% and 106.742%
- Weight (%) ([2]; group -H (high dose), Day 2): 95.5056% and 101.124% and 89.8876% and 106.742%
- Weight (%) ([2]; group -H (high dose), Day 3): 100% and 94.1176% and 94.4444% and 94.7368%
- Weight (%) ([2]; group -H (high dose), Day 4): 94.1176% and 88.2353% and 94.4444% and 88.8889% and 94.7368%
- Weight (%) ([2]; group -H (high dose), Day 5): 94.1176% and 88.2353% and 94.4444% and 83.3333% and 89.4737%
- Weight (%) ([2]; group -H (high dose), Day 6): 88.2353% and 82.3529% and 88.8889% and 83.3333% and 84.2105%
- Weight (%) ([2]; group -H (high dose), Day 7): 88.2353% and 82.3529% and 88.8889% and 77.7778% and 78.9474%
- DAI ([2]; group -L (low dose), Day 1): 0
- Weight (%) ([2]; group -L (low dose), Day 1): 100.935% and 95.3271% and 106.542%
- Weight (%) ([2]; group -L (low dose), Day 2): 100.935% and 95.3271% and 89.7196% and 106.542%
- Weight (%) ([2]; group -L (low dose), Day 3): 94.4444% and 94.1176% and 100%
- Weight (%) ([2]; group -L (low dose), Day 4): 100% and 94.4444% and 94.1176% and 94.7368%
- Weight (%) ([2]; group -L (low dose), Day 5): 100% and 94.4444% and 88.2353% and 89.4737% and 88.8889% and 94.1176%
- Weight (%) ([2]; group -L (low dose), Day 6): 100% and 94.4444% and 88.2353% and 89.4737%
- Weight (%) ([2]; group -L (low dose), Day 7): 94.4444% and 88.8889% and 94.1176% and 84.2105% and 88.2353%
- Colitis symptoms ([2]; daily treatment, 3% DSS mice): significantly suppressed colitis symptoms
- H&E staining: inflammatory infiltration and tissue damage [2, 7]: improved DSS-induced inflammatory infiltration and tissue damage
- Tight junction protein expression (immunofluorescence) [2, 7]: stabilized the expression of tight junction protein Claudin-1, Occludin and ZO-1
- Body weight loss and DAI vs DSS-exposed mice ([2]; high-dose, 20 μM, 100 μl per mouse, rectal, daily, 3% DSS 7 days): dramatically less body weight loss and lower DAI
- Colon length vs mice treated with DSS only ([2]; high-dose, 20 μM, 100 μl per mouse, rectal, 3% DSS 7 days): significantly longer
- Comparison with the DSS-treated group (colitis parameters) ([2]; low-dose, 10 μM, 100 μl per mouse, rectal, 3% DSS 7 days): no significant difference
- Serum level of FITC-dextran in DSS-treated mice relative to treated group [3]: significantly higher
- Necroptosis of HT-29 cells (PI staining) [4]: inhibit the necroptosis
